According to ChEMBL document CHEMBL5543158, “Design of Evodiamine-Glucose Conjugates with Improved In Vivo Antitumor Activity” (J Med Chem, 2024):
Values after ≈ are worked out from the molar mass of the structure shown.

Tests used:
U-87 MG = test: Antiproliferative activity against human U-87 MG cells measured after 72 hrs by CCK-8 cells; format: functional, cell-based, U-87MG ATCC
[1] = Solubility of the compound in double distilled water measured upto 30 mins by UV-vis spectrophotometry; format: physicochemical
HCT-116 [2] = test: Antiproliferative activity against human HCT116 cells measured after 72 hrs by CCK-8 cells; format: functional, cell-based; conditions: HCT-116, 72 h
A549 = test: Antiproliferative activity against human A549 cells measured after 72 hrs by CCK-8 cells; format: functional, cell-based; conditions: A549, 72 h
HCT-116 [3] = test: Antiproliferative activity against human HCT116 cells in presence of 5 uM phloretin measured after 72 hrs by CCK-8 assay; format: functional, cell-based; conditions: HCT-116, 72 h
HCT-116 [4] = test: Antiproliferative activity against human HCT116 cells in presence of 10 uM phloretin measured after 72 hrs by CCK-8 assay; format: functional, cell-based; conditions: HCT-116, 72 h
[5] = Cytotoxicity against HUVEC after 72 hrs by CCK-8 assay; format: toxicity, cell-based; conditions: human, HUVEC cells
HCT-116 [6] = test: In vivo antitumor effect in human HCT-116 cells xenografted mouse model assessed as tumor growth inhibition at 5 mg/kg, ip twice a day administered 21 consecutive days; format: functional; conditions: read-out: TGI
[7] = Toxicity in mouse xenografted with human HCT-116 cells assessed as organ damage by measuring change in spleen at 5 mg/kg, ip twice a day administered 21 consecutive days; format: organism-based; conditions: in vivo
[8] = Toxicity in mouse xenografted with human HCT-116 cells assessed as organ damage by measuring change in heart at 5 mg/kg, ip twice a day administered 21 consecutive days; format: organism-based; conditions: in vivo
[9] = Toxicity in mouse xenografted with human HCT-116 cells assessed as liver damage by measuring enlarged sizes of vacuole at 5 mg/kg, ip twice a day administered 21 consecutive days; format: organism-based; conditions: in vivo
[10] = Toxicity in mouse xenografted with human HCT-116 cells assessed as organ damage by measuring thickened alveolar wall in lungs at 5 mg/kg, ip twice a day administered 21 consecutive days; format: organism-based; conditions: in vivo
[11] = Toxicity in mouse xenografted with human HCT-116 cells assessed as kidney damage by measuring atrophy of glomeruli at 5 mg/kg, ip twice a day administered 21 consecutive days; format: organism-based; conditions: in vivo

IC50 (U-87 MG) [µM]	solubility at 0.5 h [1] [mg/mL]	IC50 (HCT-116 [2]) [µM]	IC50 (A549) [µM]	IC50 (HCT-116 [3]) [µM]	IC50 (HCT-116 [4]) [µM]	SMILES	IC50 at 72 h [5] [µM]	inhibition in vivo at 5 mg/kg (HCT-116 [6]) [%]	Activity [7]	Activity [8]	Activity [9]	Activity [10]	Activity [11]
0.049	1.99 (≈ 3030 µM)	0.049	0.049			CN1c2ccc(F)cc2C(=O)N2CCc3c([nH]c4ccc(OC(=O)CCC(=O)NCCCO[C@@H]5O[C@H](CO)[C@@H](O)[C@H](O)[C@H]5O)cc34)[C@H]21							
	0.145 (≈ 430 µM)			0.054	0.545	CN1c2ccc(F)cc2C(=O)N2CCc3c([nH]c4ccc(O)cc34)[C@H]21	0.016	51	Toxic	Toxic	Toxic	Toxic	Toxic
